In patent US10112955B2, “Isoindoline, azaisoindoline, dihydroindenone and dihydroazaindenone inhibitors of Mnk1 and Mnk2” (eFFECTOR THERAPEUTICS, INC., priority 2015, dated 2018):

Tests used:
MNK2 = MNK2 (Homo sapiens (Human), UniProt Q9HBH9); experiment: MNK Biochemical Enzymatic Assay (ADP-Glo), MNK2; conditions: 3 nM recombinant MNK2, 50 μM substrate peptide, 10 μM ATP
Description: (§1) Compounds are screened for MNK inhibition using the ADP-Glo kinase assay kit (Promega, catalogue No. V9101). All kinase reactions are performed in Reaction Buffer E (15 mM HEPES pH7.4, 20 mM NaCl, 1 mM EGTA, 10 mM MgCl2, 0.1 mg/ml BGG, and 0.02% Tween-20). […] Final DMSO concentration in each reaction is 1%.
(§2) Kinase reactions are carried out in 96-well half-area white flat-bottom polystyrene plates in a final volume of 25 μl. MNK1/2 enzymes are pre-incubated with compound and peptide substrate for 5 minutes prior to the addition of ATP. After the addition of ATP, kinase reactions are incubated at room temperature for 40 minutes. Reactions are subsequently stopped by the addition of 25 μl of ADP-Glo Reagent and incubating for an additional 40 minutes. The final luminescent signal used for kinase activity readout is produced by the addition of 45 μl of Kinase Detection Reagent (ADP-Glo kit, Promega) and incubating for 40 minutes.

Phosphorylated eIF4E = experiment: peIF4E Signaling Cellular Assay (CisBio peIF4E HTRF); format: cell-based; conditions: cells incubated with compound for 2 hrs at 37° C., 12-point curve
Description: Phosphorylated eIF4E is assayed using the CisBio peIF4E HTRF® assay kit (CisBio, catalogue No. 64EF4PEG). Cells are plated in 96-well tissue-culture treated plate in appropriate growth medium (90 μL). Compounds (10×) are diluted using 3-fold serial dilutions in cell culture medium and added to cells. Plates are incubated for 2 hrs at 37° C. The cell supernatant is carefully removed either by aspirating supernatant or by flicking the plate. Immediately 50 μL of supplemented lysis buffer (1×) is added and incubated for at least 30 minutes at room temperature under shaking. After homogenization by pipeting up and down, 16 μL of cell lysate is transferred from the 96-well cell-culture plate to a 384-well small volume white plate. 4 μL of premixed antibody solutions (vol/vol) is prepared in the detection buffer and added. The plate is covered with a plate sealer and incubated overnight at room temperature. The fluorescence emissions at two different wavelengths are read (665 nm and 620 nm) on a Wallac Victor2. Emission ratios are converted into percent inhibitions and imported into GraphPad Prism software. […] IC50 values are determined using a nonlinear regression model available in GraphPad Prism 5.

MNK1 = MNK1 (Homo sapiens (Human), UniProt Q9BUB5); experiment: MNK Biochemical Enzymatic Assay (ADP-Glo), MNK1; conditions: 10 nM recombinant MNK1, 100 μM substrate peptide, 300 μM ATP; read-out: IC50 Mnk1
Description: as §1, §2

[1] = Pharmacokinetics, single intravenous bolus administration; format: in vivo; conditions: rat, plasma, male Sprague Dawley rats, single intravenous bolus 1 mg/kg, N = 3/group, formulation 10% NMP/15% EtOH/35% PEG400/40% D5W (Cpd. 57: 10% DMA/15% EtOH/35% PEG400/40% D5W); for half-life: read-out: T½ (converted); for Vd: read-out: Vss
Description: Groups of Balb/c mice or Sprague-Dawley rats (n≥3 per dose group) are administered single doses of test compound. Compounds are formulated either as solutions in 10% N-methylpyrrolidone, 90% polyethyleneglycol 400 or as suspensions in 0.5% methylcellulose in water for oral gavage administration at a nominal dose level of 10 mg/kg. […] For intravenously dosed animals, blood samples are collected at 0.083, 0.25, 0.5, 1, 2, 4, 8, and 24 h post dose. For orally dosed animals, blood samples are collected at 0.25, 0.5, 1, 2, 4, 8, and 24 h post dose. Blood samples are collected from mice either serially via submandibular vein (approximately 0.1 mL each) or terminally via cardiac puncture (approximately 0.5 mL each). Blood samples are collected serially from rats via jugular vein catheter (approximately 0.2 mL each). Each blood sample is collected into a tube that is chilled and contains potassium EDTA as the anticoagulant. Plasma is separated and stored at approximately −80 C until analysis. Following protein precipitation with acetonitrile containing an internal standard, plasma samples are analyzed using a liquid chromatography/high-resolution mass spectrometry (LC-HRMS) method to determine plasma concentrations. Plasma concentration versus time data are subjected to noncompartmental pharmacokinetic analysis using Phoenix™ Winnonlin® (Certara LP) to determine pharmacokinetic parameters, including Area Under the Curve (AUC), Clearance (Cl), Volume of Distribution at Steady-State (Vss), and terminal half-life (T1/2). Data from orally and intravenously dose are highlighted in Tables 3 and 4, respectively.

[2] = Pharmacokinetics, single oral gavage administration; format: in vivo; conditions: male Sprague Dawley rats, single oral gavage 10 mg/kg, N = 3/group (Cpd. 71 N = 2), formulation 10% NMP/90% PEG400 (Cpd. 57: 10% DMA/90% PEG300); for AUC(0-inf) / Cmax / Tmax / half-life: rat, plasma
Description: Groups of Balb/c mice or Sprague-Dawley rats (n≥3 per dose group) are administered single doses of test compound. Compounds are formulated either as solutions in 10% N-methylpyrrolidone, 90% polyethyleneglycol 400 or as suspensions in 0.5% methylcellulose in water for oral gavage administration at a nominal dose level of 10 mg/kg. Compounds are formulated in 10% dimethylisosorbide, 15% ethanol, 35% propylene glycol, and 40% saline (or 40% D5W) for intravenous administration at a nominal dose level of 1 mg/kg. For intravenously dosed animals, blood samples are collected at 0.083, 0.25, 0.5, 1, 2, 4, 8, and 24 h post dose. For orally dosed animals, blood samples are collected at 0.25, 0.5, 1, 2, 4, 8, and 24 h post dose. Blood samples are collected from mice either serially via submandibular vein (approximately 0.1 mL each) or terminally via cardiac puncture (approximately 0.5 mL each). Blood samples are collected serially from rats via jugular vein catheter (approximately 0.2 mL each). Each blood sample is collected into a tube that is chilled and contains potassium EDTA as the anticoagulant. Plasma is separated and stored at approximately −80 C until analysis. Following protein precipitation with acetonitrile containing an internal standard, plasma samples are analyzed using a liquid chromatography/high-resolution mass spectrometry (LC-HRMS) method to determine plasma concentrations. Plasma concentration versus time data are subjected to noncompartmental pharmacokinetic analysis using Phoenix™ Winnonlin® (Certara LP) to determine pharmacokinetic parameters, including Area Under the Curve (AUC), Clearance (Cl), Volume of Distribution at Steady-State (Vss), and terminal half-life (T1/2). Data from orally and intravenously dose are highlighted in Tables 3 and 4, respectively.

MNK1, sequence (Q9BUB5 whole entry): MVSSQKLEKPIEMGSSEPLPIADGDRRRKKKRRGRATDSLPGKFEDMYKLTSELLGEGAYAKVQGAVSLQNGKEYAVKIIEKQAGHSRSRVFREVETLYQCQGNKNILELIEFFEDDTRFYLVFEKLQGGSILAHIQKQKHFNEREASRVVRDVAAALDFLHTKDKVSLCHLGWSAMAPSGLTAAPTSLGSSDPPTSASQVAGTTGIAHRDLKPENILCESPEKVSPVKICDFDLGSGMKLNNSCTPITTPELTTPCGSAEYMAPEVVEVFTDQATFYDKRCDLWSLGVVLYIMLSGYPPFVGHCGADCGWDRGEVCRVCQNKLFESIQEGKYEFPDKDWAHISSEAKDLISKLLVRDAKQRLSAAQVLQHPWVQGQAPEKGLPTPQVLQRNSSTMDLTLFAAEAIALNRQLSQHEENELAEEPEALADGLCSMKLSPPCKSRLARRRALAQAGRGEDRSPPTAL
MNK2, sequence (Q9HBH9 whole entry): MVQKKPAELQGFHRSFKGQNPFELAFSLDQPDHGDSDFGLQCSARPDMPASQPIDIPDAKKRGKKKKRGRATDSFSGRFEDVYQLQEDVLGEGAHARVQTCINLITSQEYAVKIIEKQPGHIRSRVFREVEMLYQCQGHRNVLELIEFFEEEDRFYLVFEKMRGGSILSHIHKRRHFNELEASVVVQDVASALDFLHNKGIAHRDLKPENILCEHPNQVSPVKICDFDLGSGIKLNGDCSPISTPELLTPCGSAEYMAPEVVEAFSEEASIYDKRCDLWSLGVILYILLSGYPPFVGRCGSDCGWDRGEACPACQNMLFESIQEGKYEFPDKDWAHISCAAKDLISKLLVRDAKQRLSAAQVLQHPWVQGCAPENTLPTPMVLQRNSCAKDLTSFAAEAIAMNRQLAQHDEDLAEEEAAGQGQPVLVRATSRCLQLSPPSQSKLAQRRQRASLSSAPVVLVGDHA

IC50 (MNK2) [nM] | IC50 (Phosphorylated eIF4E) [nM] | IC50 (MNK1) [nM] | AUC(0-inf) [1] [ng·h/mL] | clearance [1] [mL/min/kg] | half-life [1] [h] | Vd [1] [L/kg] | F [2] [%] | AUC(0-inf) [2] [ng·h/mL] | Cmax [2] [ng/mL] | Tmax [2] [h] | half-life [2] [h] | Compound
10 to 100 | 50 to 1000 | < 10 |  |  |  |  |  |  |  |  |  | CC1CC(=O)c2ccc(Nc3cc(NC(=O)C4CC4)ncn3)cc21 (centres unmarked) [Cpd. No. 19, N-(6-((3-methyl-1-oxo-2,3-dihydro-1H-inden-5-yl)amino)pyrimidin-4-yl)cyclopropanecarboxamide]
10 to 100 | 1000 to 100000 | 100 to 10000 |  |  |  |  |  |  |  |  |  | CC1CNC(=O)c2ccc(Nc3ccncn3)cc21 (centres unmarked) [Cpd. No. 22, 4-methyl-6-(pyrimidin-4-ylamino)-3,4-dihydroisoquinolin-1(2H)-one]
10 to 100 | 1000 to 100000 | 100 to 10000 |  |  |  |  |  |  |  |  |  | CC1Cc2cc(Nc3ccncn3)ccc2C(=O)N1 (centres unmarked) [Cpd. No. 23, 3-methyl-6-(pyrimidin-4-ylamino)-3,4-dihydroisoquinolin-1(2H)-one]
100 to 10000 | 1000 to 100000 | 10 to 100 |  |  |  |  |  |  |  |  |  | CC1NC(=O)c2ccc(Nc3ncnc4c3OCCN4)cc21 (centres unmarked) [Cpd. No. 38, 5-(7,8-dihydro-6H-pyrimido[5,4-b][1,4]oxazin-4-ylamino)-3-methyl-isoindolin-1-one]
10 to 100 | < 50 |  | 1060 | 16.6 | 7.34 | 6.56 | 25.0 | 2650 | 425 | 4 | 2.59 | Cc1cc(Nc2ncnc(N)c2C)cc2c1C(=O)NC21CCCCC1 [Cpd. No. 55, 6′-((6-amino-5-methylpyrimidin-4-yl)amino)-4′-methylspiro[cyclohexane-1,1′-isoindolin]-3′-one]
< 10 | < 50 |  | 1720 | 11.1 | 7.78 | 3.46 | 14.5 | 2490 | 584 | 0.833 | 3.27 | COc1c(N)ncnc1Nc1cc(C)c2c(c1)C1(CCCCC1)NC2=O [Cpd. No. 57, 6′-((6-amino-5-methoxypyrimidin-4-yl)amino)-4′-methylspiro[cyclohexane-1,1′-isoindolin]-3′-one]
< 10 | < 50 |  | 491 | 35.3 | 9.44 | 13.2 | 27.9 | 1370 | 417 | 0.417 | 9.15 | Cc1cc(Nc2ncnc(N)c2Cl)cc2c1C(=O)NC21CCCCC1 [Cpd. No. 58, 6′-((6-amino-5-chloropyrimidin-4-yl)amino)-4′-methylspiro[cyclohexane-1,1′-isoindolin]-3′-one]
 | < 50 |  | 886 | 19.1 | 4.15 | 3.9 | 63.9 | 5660 | 1140 | 0.5 | 2.9 | Cc1cc(Nc2ncnc(N)c2C)nc2c1C(=O)NC21CCCCC1 [Cpd. No. 71, 2′-((6-amino-5-methylpyrimidin-4-yl)amino)-4′-methylspiro[cyclohexane-1,7′-pyrrolo[3,4-b]pyridin]-5′(6′H)-one]

Further lines, the compound ahead of its results:

Compound | IC50 (MNK2) [nM] | IC50 (Phosphorylated eIF4E) [nM] | IC50 (MNK1) [nM] | AUC(0-inf) [1] [ng·h/mL] | clearance [1] [mL/min/kg] | half-life [1] [h] | Vd [1] [L/kg] | F [2] [%] | AUC(0-inf) [2] [ng·h/mL] | Cmax [2] [ng/mL] | Tmax [2] [h] | half-life [2] [h]
CC1NC(=O)c2ccc(Nc3ccnc(NC(=O)C4CC4)c3)cc21 (centres unmarked) [Cpd. No. 24, N-(4-((3-methyl-1-oxoisoindolin-5-yl)amino)pyridin-2-yl) cyclopropane carboxamide] | 100 to 10000 | 50 to 1000 | < 10 |  |  |  |  |  |  |  |  | 
Cc1cc(Nc2ccncn2)cc2c1C(=O)NC2C (centres unmarked) [Cpd. No. 33, 3,7-dimethyl-5-(pyrimidin-4-ylamino)isoindolin-1-one] | 10 to 100 | 1000 to 100000 | 10 to 100 |  |  |  |  |  |  |  |  | 
CC1NC(=O)c2c(Cl)cc(Nc3ccncn3)cc21 (centres unmarked) [Cpd. No. 35, 7-chloro-3-methyl-5-(pyrimidin-4-ylamino)isoindolin-1-one] | < 10 | 50 to 1000 | < 10 |  |  |  |  |  |  |  |  | 
CC1(C)NC(=O)c2c(Cl)cc(Nc3ccncn3)cc21 [Cpd. No. 36, 7-chloro-3,3-dimethyl-5-(pyrimidin-4-ylamino)isoindolin-1-one] | < 10 | 50 to 1000 | < 10 |  |  |  |  |  |  |  |  | 
CC1NC(=O)c2ccc(Nc3ncnc4c3CCN4)cc21 (centres unmarked) [Cpd. No. 39, 5-(6,7-dihydro-5H-pyrrolo[2,3-d]pyrimidin-4-ylamino)-3-methyl-isoindolin-1-one] | 100 to 10000 | 1000 to 100000 | 10 to 100 |  |  |  |  |  |  |  |  | 
CC1NC(=O)c2cnc(Nc3ccnc(NC(=O)C4CC4)c3)cc21 (centres unmarked) [Cpd. No. 42, N-(4-((1-methyl-3-oxo-2,3-dihydro-1H-pyrrolo[3,4-c]pyridin-6-yl)amino)pyridin-2-yl)cyclopropanecarboxamide] | < 10 | 1000 to 100000 | < 10 |  |  |  |  |  |  |  |  | 
CC1(C)NC(=O)c2c(Cl)cc(Nc3cc(N)ncn3)cc21 [Cpd. No. 43, 5-((6-aminopyrimidin-4-yl)amino)-7-chloro-3,3-dimethylisoindolin-1-one] | < 10 | < 50 | < 10 |  |  |  |  |  |  |  |  | 
COc1c(N)ncnc1Nc1cc(C)c2c(n1)C1(CCCCC1)NC2=O [Cpd. No. 72, 2′-((6-amino-5-methoxypyrimidin-4-yl)amino)-4′-methylspiro[cyclohexane-1,7′-pyrrolo[3,4-b]pyridin]-5′(6′H)-one] |  | < 50 |  | 1130 | 14.8 | 8.48 | 4.59 | 24.2 | 2740 | 1380 | 0.667 | 2.75
